Laboratory results published in US11912789B2, “Peptide activating agent” (Interk Peptide Therapeutics Limited, priority 2018, dated 2024).

Tested on: PBMCs
Assay: Foxp3+ Treg proportion in anti-CD3 stimulated PBMCs
Assay type: cell-based, human
Details: in the absence of RSKAKNPLYR-(2Adod)4-NH2; FIG. 9
Description: Shown is the percentage inhibition of Regulatory T cells (Tregs:Foxp3+) within human PBMCs in the presence of RSKAKNPLYR-(2Adod)4-NH2 (cells gated for CD4+/CD25+/CD127101. Anti-CD3 stimulated PBMCs were cultured together with RSKAKNPLYR-(2Adod)4-NH2 over a 5-concentration range plus vehicle control (0-1.25 μM) for 48 hrs. Treg populations were determined by measuring Foxp3+ proportion of cells within CD4+CD25+CD127^low population. Data were normalised due to donor variation. Data presented indicates the fold change in Foxp3+ Treg proportions in response to peptide treatment, +/−SEM, n=4. Data were analysed by RM two-way ANOVA with Dunnett's post-test comparing each peptide concentration with […], **p<0.01, ****p<0.0001. Dotted line indicates vehicle control for normalisation.
Anti-CD3 stimulated PBMCs were cultured together with RSKAKNPLYR-(2Adod)4-NH2, over a 5-concentration range plus vehicle control (0-1.25 μM) in combination with anti-PD-1 (Pembrolizumab) or isotype (hlgG4) for 48 hrs after which CD4+ and CD8+ T cells were assessed by flow cytometry. Treg populations were determined by measuring Foxp3+ proportion of cells within CD4+CD25+CD127^low populations. […] Data were analysed by RM two-way ANOVA with Sidak's post-test comparing peptide in combination with anti-PD-1 vs combination with hlgG4 at each dose, *p<0.05, **p<0.01. […]

## Pembrolizumab [anti-PD-1 antibodies]
  proportion of Treg cells within PBMCs, anti-PD-1 versus isotype control: same proportion of Treg cells
